Assays:
Cytochrome P450 2C9 = Cytochrome P450 2C9 (Homo sapiens, UniProt P11712); assay: Binding affinity to CYP2C9
[1] = Dissociation constant, pKa of the compound

Chain of Cytochrome P450 2C9 (P11712 whole entry): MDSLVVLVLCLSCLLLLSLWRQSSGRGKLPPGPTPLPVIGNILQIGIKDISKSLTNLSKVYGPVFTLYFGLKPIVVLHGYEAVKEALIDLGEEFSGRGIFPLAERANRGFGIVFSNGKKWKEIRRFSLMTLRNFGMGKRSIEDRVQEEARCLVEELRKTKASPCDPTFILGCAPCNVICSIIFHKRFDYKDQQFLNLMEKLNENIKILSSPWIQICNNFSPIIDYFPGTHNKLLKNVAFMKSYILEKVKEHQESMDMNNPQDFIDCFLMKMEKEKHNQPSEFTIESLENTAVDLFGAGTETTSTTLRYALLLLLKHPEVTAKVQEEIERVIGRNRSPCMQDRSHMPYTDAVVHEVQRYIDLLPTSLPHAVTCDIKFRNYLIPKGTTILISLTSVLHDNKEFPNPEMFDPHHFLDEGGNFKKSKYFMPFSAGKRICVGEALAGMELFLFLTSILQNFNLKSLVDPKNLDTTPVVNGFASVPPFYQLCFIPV

Ki (Cytochrome P450 2C9) [nM] | pKa [1] | SMILES
5930 |  | COc1ccc(C(=O)c2c(C)oc3ccccc3c2=O)cc1
 | 4.72 | CCc1oc2ccccc2c(=O)c1C(=O)c1cc(Br)c(O)c(Br)c1
3120 |  | CCCc1oc2ccccc2c(=O)c1C(=O)c1ccc(OC)cc1
1420 | 7.74 | CCc1oc2ccccc2c(=O)c1C(=O)c1ccc(O)cc1
4870 |  | CCc1oc2ccccc2c(=O)c1C(=O)c1ccncc1
6480 |  | CCc1oc2ccccc2c(=O)c1C(=O)c1ccc(OC)cc1
6740 | 7.74 | Cc1oc2ccccc2c(=O)c1C(=O)c1ccc(O)cc1
656 | 7.74 | CCCc1oc2ccccc2c(=O)c1C(=O)c1ccc(O)cc1
41 | 4.89 | Cc1oc2ccccc2c(=O)c1C(=O)c1cc(I)c(O)c(I)c1
44.3 |  | CCCc1oc2ccccc2c(=O)c1C(=O)c1cc(I)c(OC)c(I)c1

SMILES | Ki (Cytochrome P450 2C9) [nM] | pKa [1]
CCCc1oc2ccccc2c(=O)c1C(=O)c1cc(I)c(O)c(I)c1 | 4.2 | 4.89
CCc1oc2ccccc2c(=O)c1C(=O)c1cc(I)c(O)c(I)c1 | 23 | 4.89
